Source: ChEMBL document CHEMBL3352275, “2-Aminothiazole derivatives as antimycobacterial agents: Synthesis, characterization, in vitro and in silico studies” (Eur J Med Chem, 2014)
pKi: −log10 of the molar value. ≈ marks a conversion by molar mass, not a printed value.

What was measured:
[1] = tested on: Mycobacterium tuberculosis; experiment: Antimycobacterial activity against Mycobacterium tuberculosis H37Rv after 5 days by resazurin-based microdilution method; type: functional; conditions: 120 h
[2] = Binding affinity to Mycobacterium tuberculosis beta-Ketoacyl-ACP Synthase

Row | Structure (SMILES) | MIC [1] | pKi [2]
1 | Oc1ccc(Nc2nc(-c3ccc(Cl)cc3)cs2)cc1 | 200 µM (≈ 60.6 µg/mL) | 
2 | COc1ccc(-c2csc(Nc3ccc(O)cc3)n2)cc1 | > 200 µM | 
3 | COc1ccc(-c2csc(Nc3cccc(C)n3)n2)cc1 | > 200 µM | 
4 | Fc1ccc(Nc2nc(-c3cccnc3)cs2)cc1 | > 200 µM | 
5 | Cc1cccnc1Nc1nc(-c2ccc(Br)cc2)c(Br)s1 | > 200 µM | 
6 | Fc1ccc(Nc2nc(-c3ccc(Cl)cc3)cs2)cc1 | 12.5 µM (≈ 3.81 µg/mL) | 
7 | Fc1ccc(Nc2nc(-c3ccc(Br)cc3)cs2)cc1 | 25 µM (≈ 8.73 µg/mL) | 5.89
8 | Cc1sc(Nc2ccc(F)cc2)nc1-c1ccc(Br)cc1 | 100 µM (≈ 36.3 µg/mL) | 
9 | Fc1ccc(Nc2nc(-c3ccc(Br)cc3)c(Br)s2)cc1 | 25 µM (≈ 10.7 µg/mL) | 
10 | Fc1ccc(Nc2nc(-c3ccc4ccccc4c3)cs2)cc1 | 100 µM (≈ 32 µg/mL) | 
11 | COc1ccc(-c2csc(Nc3ccc(F)cc3)n2)cc1 | 12.5 µM (≈ 3.75 µg/mL) | 
12 | COc1ccc(-c2csc(Nc3ccc(Cl)cc3[N+](=O)[O-])n2)cc1 | 12.5 µM (≈ 4.52 µg/mL) | 
13 | O=[N+]([O-])c1cc(Cl)ccc1Nc1nc(-c2ccc3ccccc3c2)cs1 | > 200 µM | 
14 | Brc1ccc(Nc2nc(-c3ccncc3)cs2)cc1 |  | 6.36
15 | O=[N+]([O-])c1cc(Cl)ccc1Nc1nc(-c2ccccn2)cs1 | > 200 µM | 
16 | O=[N+]([O-])c1cc(Cl)ccc1Nc1nc(-c2cccnc2)cs1 | > 200 µM | 

Row | Structure (SMILES) | MIC [1] | pKi [2]
17 | O=[N+]([O-])c1cc(Cl)ccc1Nc1nc(-c2ccncc2)cs1 | > 200 µM | 
18 | Brc1ccc(-c2csc(Nc3ccccn3)n2)cc1 | > 200 µM | 
19 | Cc1sc(Nc2ccccn2)nc1-c1ccc(Br)cc1 | > 200 µM | 
20 | Brc1ccc(-c2nc(Nc3ccccn3)sc2Br)cc1 | > 200 µM | 
21 | Cc1cccnc1Nc1nc(-c2ccc(Cl)c(Cl)c2)cs1 | > 200 µM | 
22 | Cc1cccnc1Nc1nc(-c2ccc(Br)cc2)c(C)s1 | 100 µM (≈ 36 µg/mL) | 
23 | Cc1cccc(Nc2nc(-c3ccc(Cl)c(Cl)c3)cs2)n1 | > 200 µM | 
24 | Cc1cccc(Nc2nc(-c3ccc(Br)cc3)c(C)s2)n1 | > 200 µM | 
25 | Cc1cccc(Nc2nc(-c3cccc4ccccc34)cs2)n1 | > 200 µM | 
26 | Cc1cccnc1Nc1nc(-c2cccnc2)cs1 | > 200 µM | 
27 | Cc1cccc(Nc2nc(-c3ccncc3)cs2)n1 | 100 µM (≈ 26.8 µg/mL) | 4.52
28 | Cc1cccnc1Nc1nc(-c2ccncc2)cs1 | > 200 µM | 
29 | Oc1ccc(Nc2nc(-c3cccnc3)cs2)cc1 | > 200 µM | 
30 | c1ccc(Nc2nc(-c3cccnc3)cs2)nc1 | > 200 µM | 
31 | Oc1ccc(Nc2nc(-c3ccncc3)cs2)cc1 | > 200 µM | 
32 | Fc1ccc(Nc2nc(-c3ccncc3)cs2)cc1 | 25 µM (≈ 6.78 µg/mL) | 
